Measurements as given in patent US20030228253A1, “Radiolabelled thioplatin, compositions thereof and methods of cancer treatment” (priority 2002, published 2003).
“Also recorded” adds a separate entry of the source.

Key:
DNA of tumor cells [1] = experiment: DNA binding of platinum compounds; conditions: for DNA binding: pH 6.8 (solid tumor pH norm)
Source text: ^195mPlatinum is cytotoxic by its release of “auger” electron at 33/disintegrations and with a half-life of over 4 days. In order to amplify the cytotoxicity of the tumor cells, the final drug radioactive thioplatin must be located on the DNA of tumor cells. […] Radioactive thioplatin can be quantitated in the clinic by nuclear SPECT scanning of the tumor and normal tissues for low-energy photons (65-129 kev) emitted by radioactive platinum.

[2] = tested on: human lung and colon cancer; experiment: Tumor cytotoxicity in human tumor xenografts in nude mice; format: in vivo
[3] = Normal tissue toxicity in experimental animals (body weight, white blood cells, BUN, histopathology/biopsy of kidney and intestine); format: in vivo
Experimental: Thioplatin administered to experimental animals was assayed for the effects of the drug on body weight, white blood cells, BUN and histophathology of kidneys and small intestines.

[4] = background statement; cited from earlier work
human squamous carcinoma = conditions: nude mice bearing a human squamous carcinoma; cited from earlier work
DNA of tumor cells [5] = conditions: background statement; cited from earlier work

Compound | DNA binding relative to cisplatin (DNA of tumor cells [1]; background statement, compared to cisplatin) | DNA binding (DNA of tumor cells [1]) | tumor cytotoxicity ([2]; human tumor xenografts in nude mice, human lung and colon cancer) | pH dependence of cytotoxicity ([2]; tumor pH 6.8 versus normal pH 7.2 to 7.4) | effect on BUN ([3]; experimental animals) | effect on body weight ([3]; experimental animals) | effect on white blood cells ([3]; experimental animals) | histopathology of kidneys and small intestines ([3]; experimental animals) | normal tissue toxicity compared to cisplatin ([3]; human tumor xenografts in nude mice, compared to the standard cisplatin) | peripheral toxicity by direct biopsy of the kidney and intestinal tract [4] | antitumor effect (tumor growth delay, log of tumor growth, area under the curve) (human squamous carcinoma) | binding of DNA (DNA of tumor cells [5]) [nanograms/milligrams]
thioplatin | one-thousand | 13,870 ng/mg | cytotoxic to human lung and colon cancer; also recorded: significant tumor cytotoxicity | most effective at an acidic pH | negligible | negligible | negligible | negligible | reduced normal tissue toxicity | lack of normal tissue toxicity |  | 
N.N.[Cl][191Pt][Cl] [^191cisplatin] |  |  |  |  |  |  |  |  |  |  | cytotoxic to the tumor | 
N.N.[Cl][Pt][Cl] [cisplatin] |  | 14.6 ng/mg |  |  |  |  |  |  |  |  |  | 14.3
